# Molecular target: T1, MMP-13CD (Homo sapiens, UniProt P45452)
# T1 construct: expression of MMP-13 catalytic domain (“MMP-13CD”) in E. coli typically produces a pro form of the enzyme; A-S- dipeptide left from the M-A-S- expression leader (mPro-MMP-13CD); removed by autolysis (N, cleaved yes); made in house
# Assay: Autolysis of mPro-MMP-13CD / MMP-13CD after addition of a zinc ligand, followed by MALDI-MS
# Type: biochemical
# Settings: added to modified pro form A-S-MMP-13CD
# Method: A 1 mL aliquot of the solution obtained in Preparation 3 was thawed and purified by addition of 100 μL of hydroxamic acid to give a solution of purified MMP-13CD, and the solution was stored at 4° C.
# Matrix-Assisted Laser Desorption/Ionization Mass Spectrometry (“MALDI”): MALDI mass spectra were acquired on a Bruker Daltonics, Inc (Billerika, Mass.) Reflex-III time-of-flight mass spectrometer operating in linear mode. The instrument has a 3.3-meter flight tube and an adjustable accelerating voltage up to 23 kV in Delayed Extraction mode. Radiation from a Laser Science, Inc. (Newton, Mass.) nitrogen laser (337 nm, 3-nanosecond pulse width) was used to desorb ions from the target. All linear delayed-extraction experiments were performed using an operating voltage of 23.0 kV, an extraction grid voltage of 20.0 kV, a focus voltage of 16.8 kV, and a lens voltage of 9.001 kV. Twenty-five to one hundred-fifty laser shots were averaged for each spectrum with a 5-point Savitsky-Golay smooth applied. […]
# Samples of protein were then analyzed by MALDI-MS every day for 5 days. […] The flash-frozen material was stored, then thawed and immediately analyzed. […] The relative peak heights were calculated by dividing the a.i. value for MMP-13CD at m/z 18923 by the a.i. value for the particular impurity. […]
structure (smiles),measurement,value
CC(=O)NO [acetohydroxamic acid],effect on autolysis of MMP-13CD,stabilizes the resulting mature MMP-13CD itself against autolysis

# — patent publication US20030099632A1, “Method for preparing a purified matrix metalloproteinase” (priority 2001, published 2003)
